Reference: patent US10149644B2, “Curcumin derivatives for amyloid-β plaque imaging” (The General Hospital Corporation, priority 2008, dated 2018)

Assays:
[1] = Log P measurement (octanol/water); assay type: physicochemical
Method: Log p measurement was performed according to the reported procedure {35}. CRANAD-2 (0.125 mM) in Octanol 2.0 mL was subjected to partition with octanol-saturated water 2.0 mL. The resulting mixture was stirred vigorously for 5 min., and centrifuged at 2,000 rpm for 5 min. The octanol layer was separated from water layer, and its fluorescence spectrum was recorded (excited at 590 nm). The above water layer was partitioned with water-saturated octanol 2.0 mL, and the octanol layer was separated after 5 min. vigorous stirring and 5 min. centrifuge at 2,000 rpm, and its spectrum was recorded. The log P value was calculated by the fluorescence intensity ratio at 690 nm for the above two octanol extractions.
In order for the probe to cross blood brain barrier, its lipophilicity (log P) should be within 2-5 range.

[2] = BBB penetration and blood/brain clearance; assay type: in vivo, Balb/c mice; conditions: 10 mg/kg i.v.
Method: To test the BBB penetrating ability of the probe, Balb/c mice were used (n=3). […] Mice were perfused with saline solution and the brains were excised at 30 min., 1 h, 2 h, and 4 h after injection. Each brain sample was homogenized with 2.0 ml water and 3.0 ml ethyl acetate, and the homogenate was centrifuged for 5 min at 2,500 rpm. The fluorescence intensities of the ethyl acetate supernatant were recorded. The actual amounts (pmol) of the extracted probe were calculated according to the standard curve of CRANAD-2 in ethyl acetate.
Prior to perfusion, blood samples were taken at each time point to monitor the probe blood clearance. The blood samples were diluted with PBS buffer to 1.0 mL, followed by ethyl acetate (2.0 mL) extraction. The extractions were subjected to fluorescence intensity measurement, and the actual amounts of the probe for each mouse were calculated as the procedure for brain extraction described above.
In addition, to follow the probe clearance the inventors drew blood samples at each time point. […] LC-MS results also confirmed that the major component of the ethyl acetate extraction was CRANAD-2.

Tg2576 mice = assay: In vivo NIR imaging
Method: In vivo NIR imaging was performed using Kodak Imaging station 2000MM. For fluorescence excitation, three laser diodes at 660 nm with a total power of 10 mW/cm2 have been used yielding a uniform illumination of the whole animal. The fluorescent light emitted from the sample (mouse) was detected by a charge-coupled device (CCD) camera (Hamamatsu ORCA) equipped with a focusing lens system (macro lens 60 mm, 1:2.8, Nikon). The image matrix comprised of 532×256 pixels. A bandpass filter was used for the selection of the detection wavelength (700 nm). Integration time default was selected at 30 s. Images were acquired Kodak 1DTM 3.6.3 Network software and analysed using the Kodak™ 1D Analysis software.
Mice (n=3 for Tg2576 and n=3 for the littermates) were shaved before background imaging, and were i.v. injected CRANAD-2 (5.0 mg/kg) for each mouse. Fluorescence signals from the brain were recorded at pre-injection, and 10 min., 30 min., 60 min., 120 min., 240 min., and 480 min. after intravenous injection of the probe. To evaluate our imaging results, an ROI was drawn around the brain region, and the data were analyzed by the following modified equation (1) {24}, where Irel(t) is the relative fluorescence intensity at the certain time point, I(t) is the measured ROI value at this time point, I(pre) is the pre-injection background, and I(30) is the reading at 30 min. Since pre-injection background varied in different mice, this equation allowed us to correct for it. Fluorescence intensity decay curves were then generated based on this equation. Irel(t)=(I(t)−I(pre))/(I(30)−I(pre)) (1)
For in vivo specific binding (SP), the calculation was based on equation (2), where Irel(tg) is the relative fluorescence intensity of Tg2576, and Irel(contr) is the relative fluorescence intensity of the control littermates. P values were calculated by Student test. SP(t)={Irel(tg)−Irel(contr)}/Irel(tg) (2) Ex Vivo Histological Correlation.
Transgenic 11-month and 19-month old Tg2576 mice were used to validate the feasibility of CRANAD-2 as NIR imaging probe. Aged-matched wild type littermates served as controls. Images were recorded before and after i.v. injection of CRANAD-2 at 5.0 mg/Kg dosage. […] Furthermore, the signals from 19-month old Tg2576 (FIG. 11D) were remarkably brighter at all time points.
Semi-quantitative analysis of these images was conducted with selected region of interested (ROI), and two sets of data were generated. By normalizing the fluorescence intensity to that of 30 min. after the injection of the probe, we were able to create four well-fit decay curves with non-linear regression for two binding site model (Prism 3.0) for both 11- and 19-months old groups (R2=0.96, 0.97, 0.97, and 0.94 for 11-month control, tg2576, and 19-month control and tg2576 respectively) (FIG. 9A). By normalizing the signal to background fluorescence intensity (Fpre), and using the ratio between fluorescence intensity at time points studied ((F(t)) and Fpre) we could compare the signal change in Tg2576 group to that of the control group (FIGS. 9B,C)(e.g. F(t)/Fpre). Details of these methods are described in Materials and Methods contained herein.

senile plaques = assay: Ex vivo histological correlation; assay type: in vivo, mice; conditions: 19-month old transgenic mice, 10 mg/kg i.v.
Method: 19 month-old mouse was injected CRANAD-2 (10.0 mg/kg), and was sacrified after perfusion with 4% formaldehyde. The brain was taken and embedded in OCT. For histology, the brain was sliced into 25μ slices, and co-stained with thioflavin S as described above. To obtain ex vivo confirmation of the probe binding, mice at different ages were i.v injected with 10 mg/kg of CRANAD-2 probe, perfused and scarified at 1 h after injection.

Aβ plaques = assay: AD tissue staining of APP-PS1 brain sections; conditions: 25 micron sections, 12-month old APP-PS1 mice
Description: The inventors conducted tissue staining with 25 micron brain sections from 12-month old APP-PS1 mice by all the compounds listed in FIG. 12.

CN(C)c1ccc(/C=C/C2=CC(/C=C/c3ccc(N(C)C)cc3)=[O+][B-](F)(F)O2)cc1 [CRANAD-2]
logP [1]: 3
Clearance from blood [2]: rapid clearance from blood
Clearance from the brain vs blood [2]: significantly slower
BBB penetrating ability ([2]; brain homogenate, fluorescence, HPLC, LC-MS): capability to cross BBB
Declining of brain fluorescence signals, Tg2576 vs control (Tg2576 mice; 5.0 mg/kg i.v., 11- and 19-month old): considerably slower
Difference in F(t)/Fpre, Tg2576 vs control (Tg2576 mice; 11-month old, 120 min): 0.52
Difference in relative fluorescence decay Irel(t), Tg2576 vs control (Tg2576 mice; 11-month old, 120 min, 5.0 mg/kg i.v.): 23%
Difference in F(t)/Fpre, Tg2576 vs control (Tg2576 mice; 11-month old, 240 min): 0.45
Difference in relative fluorescence decay Irel(t), Tg2576 vs control (Tg2576 mice; 11-month old, 240 min, 5.0 mg/kg i.v.): 16%
Difference in F(t)/Fpre, Tg2576 vs control (Tg2576 mice; 19-month old, 120 min): 0.43
Difference in relative fluorescence decay Irel(t), Tg2576 vs control (Tg2576 mice; 19-month old, 120 min, 5.0 mg/kg i.v.): 20%
Difference in F(t)/Fpre, Tg2576 vs control (Tg2576 mice; 19-month old, 240 min): 0.65
Difference in relative fluorescence decay Irel(t), Tg2576 vs control (Tg2576 mice; 19-month old, 240 min, 5.0 mg/kg i.v.): 30%
Fluorescence intensity, transgenic vs control groups (Tg2576 mice; 30, 60, 120 and 240 min after injection): higher than that of the control groups
Slower decay rate, 19-month vs 11-month old Tg2576 (Tg2576 mice; 120 min): 11%
"Smart" amplification factor in vivo (ratio>1.0 = smart) (Tg2576 mice; 120 min and 240 min, 11- and 19-month groups): “smart” probe in vivo
Slower decay rate, 19-month vs 11-month old Tg2576 (Tg2576 mice; 240 min): 13%
Labelling of senile plaques ex vivo after i.v. injection (senile plaques): senile plaques were observed
Staining of plaques in brain sections (Aβ plaques): good staining
Staining of plaques in brain sections (Aβ plaques; listed as CRANAD2): stained the plaques brightly
